# Experimental data: US6355799B1, “Substituted benzene compounds, process for their preparation, and herbicidal and defoliant compositions containing them” (ISK Americas Incorporated, priority 1997, dated 2002)
# Experiments:
# Format in all cases: in vivo
# [1] = system: redroot pigweed (Amaranthus retroflexus, AMARE); assay: Pre-emerge test, greenhouse herbicide activity screening; conditions: phytotoxicity rating 0-100, 14 days after application
# Summary of the method: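 Plants grown in 10 cm pots of sandy loam mix received acetone-dissolved compounds through a moving flat-fan nozzle. Doses ranged from 15 to 1000 g ai/ha. Pre-emerge pots were seeded one day earlier, post-emerge pots 8–21 days earlier. Fourteen days on, each pot was graded 0–100 for damage.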
# [2] = system: barnyardgrass (Echinochloa crus-galli, ECHCG); assay: as above; conditions: phytotoxicity rating 0-100, 14 days after application
# Summary of the method: (§1)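 Applied at 15–1000 g ai/ha from acetone in 187 l/ha spray volume. Post-emergence applications included 0.25% v/v non-ionic surfactant and reached plants sown 8–21 days before. Pre-emergence applications were incorporated by surface watering. Efficacy or crop damage was rated on a 0–100 scale after 14 days.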
# [3] = system: green foxtail (Setaria viridis, SETVI); assay: as above; conditions: phytotoxicity rating 0-100, 14 days after application
# Summary of the method: as §1
# [4] = system: ivyleaf morningglory (Ipomoea hederacea, IPOHE); assay: as above; conditions: phytotoxicity rating 0-100, 14 days after application
# Summary of the method: as §1
# [5] = system: johnsongrass (Sorghum halepense, SORHA); assay: as above; conditions: phytotoxicity rating 0-100, 14 days after application
# Summary of the method: as §1
# [6] = system: lambsquarters (Chenopodium album, CHEAL); assay: as above; conditions: phytotoxicity rating 0-100, 14 days after application
# Summary of the method: as §1
# [7] = system: large crabgrass (Digitaria sanguinalis, DIGSA); assay: as above; conditions: phytotoxicity rating 0-100, 14 days after application
# Summary of the method: as §1
# [8] = system: sicklepod (Cassia obtusifolia, CASOB); assay: as above; conditions: phytotoxicity rating 0-100, 14 days after application
# Summary of the method: as §1
# [9] = system: velvetleaf (Abutilon theophrasti, ABUTH); assay: as above; conditions: phytotoxicity rating 0-100, 14 days after application
# Summary of the method: as §1
# [10] = system: field corn (Zea mays L., var. Dekalb 535, CORN); assay: Pre-emerge test, crop safety; conditions: crop damage rating 0-100, 14 days after application
# Summary of the method: (§2)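 Sandy loam pots; pre-emerge: sown 1 d pre-spray, surface-watered after, then bottom-watered. Post-emerge: sown 8–21 d before, 2–3 leaf stage, + 0.25% v/v NIS, bottom-watered. Acetone, 187 l/ha track spray, 15–1000 g ai/ha. 0–100 injury score, day 14.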
# [11] = system: upland rice (Oryza sp., var. Tebonnet, RICE); assay: Pre-emerge test, crop safety; conditions: crop damage rating 0-100, 14 days after application
# Summary of the method: as §2
# [12] = system: barnyardgrass (Echinochloa crus-galli, ECHCG); assay: Post-emerge test, greenhouse herbicide activity screening; conditions: post-emerge, 14 days after application, rating scale 0-100
# Summary of the method: (§3)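 Compounds in acetone were track-sprayed at 15–1000 g ai/ha: pre-emergence onto soil sown the previous day, then top-watered to incorporate and later bottom-watered; post-emergence onto 2–3 leaf plants with 0.25% v/v surfactant, bottom-watered only. Ratings on a 0–100 phytotoxicity scale were taken at day 14.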
# [13] = system: green foxtail (Setaria viridis, SETVI); assay: as above; conditions: post-emerge, 14 days after application, rating scale 0-100
# Summary of the method: as §3
# [14] = system: ivyleaf morningglory (Ipomoea hederacea, IPOHE); assay: as above; conditions: post-emerge, 14 days after application, rating scale 0-100
# Summary of the method: as §3
# [15] = system: lambsquarters (Chenopodium album, CHEAL); assay: as above; conditions: post-emerge, 14 days after application, rating scale 0-100
# Summary of the method: as §3
# [16] = system: large crabgrass (Digitaria sanguinalis, DIGSA); assay: as above; conditions: post-emerge, 14 days after application, rating scale 0-100
# Summary of the method: as §3
# [17] = system: redroot pigweed (Amaranthus retroflexus, AMARE); assay: as above; conditions: post-emerge, 14 days after application
# Summary of the method: as §3
# [18] = system: sicklepod (Cassia obtusifolia, CASOB); assay: as above; conditions: post-emerge, 14 days after application, rating scale 0-100
# Summary of the method: as §3
# [19] = system: velvetleaf (Abutilon theophrasti, ABUTH); assay: as above; conditions: post-emerge, 14 days after application, rating scale 0-100
# Summary of the method: as §3
# [20] = system: field corn (Zea mays L., var. Dekalb 535, CORN); assay: Post-emerge test, crop safety; conditions: post-emerge, 14 days after application, rating scale 0-100
# Summary of the method: as §1
# [21] = system: upland rice (Oryza sp., var. Tebonnet, RICE); assay: Post-emerge test, crop safety; conditions: post-emerge, 14 days after application, rating scale 0-100
# Summary of the method: as §1
smiles,measurement,setting,value
COc1c(Cl)cc(F)c(-n2c(=O)cc(C(F)(F)F)n(C)c2=O)c1NC(=O)OCc1c(F)c(F)c(F)c(F)c1F [4-48],Pre-emerge Herbicidal Activity AMARE,[1]; 63 g ai/ha,100
same,Pre-emerge Herbicidal Activity AMARE,[1]; 250 g ai/ha,100
same,Pre-emerge Herbicidal Activity ECHCG,[2]; 63 g ai/ha,50
same,Pre-emerge Herbicidal Activity ECHCG,[2]; 250 g ai/ha,70
same,Pre-emerge Herbicidal Activity SETVI,[3]; 63 g ai/ha,100
same,Pre-emerge Herbicidal Activity SETVI,[3]; 250 g ai/ha,100
same,Pre-emerge Herbicidal Activity IPOHE,[4]; 63 g ai/ha,80
same,Pre-emerge Herbicidal Activity IPOHE,[4]; 250 g ai/ha,100
same,Pre-emerge Herbicidal Activity SORHA,[5]; 63 g ai/ha,60
same,Pre-emerge Herbicidal Activity SORHA,[5]; 250 g ai/ha,90
same,Pre-emerge Herbicidal Activity CHEAL,[6]; 63 g ai/ha,100
same,Pre-emerge Herbicidal Activity CHEAL,[6]; 250 g ai/ha,100
same,Pre-emerge Herbicidal Activity DIGSA,[7]; 63 g ai/ha,100
same,Pre-emerge Herbicidal Activity DIGSA,[7]; 250 g ai/ha,100
same,Pre-emerge Herbicidal Activity CASOB,[8]; 63 g ai/ha,40
same,Pre-emerge Herbicidal Activity CASOB,[8]; 250 g ai/ha,100
same,Pre-emerge Herbicidal Activity ABUTH,[9]; 63 g ai/ha,100
same,Pre-emerge Herbicidal Activity ABUTH,[9]; 250 g ai/ha,100
same,Pre-emerge Herbicidal Activity CORN,[10]; 63 g ai/ha,30
same,Pre-emerge Herbicidal Activity CORN,[10]; 250 g ai/ha,50
same,Pre-emerge Herbicidal Activity RICE,[11]; 63 g ai/ha,20
same,Pre-emerge Herbicidal Activity RICE,[11]; 250 g ai/ha,70
same,phytotoxicity rating ECHCG,[12]; 63 g ai/ha,20
same,phytotoxicity rating ECHCG,[12]; 250 g ai/ha,80
same,phytotoxicity rating SETVI,[13]; 63 g ai/ha,30
same,phytotoxicity rating SETVI,[13]; 250 g ai/ha,40
same,phytotoxicity rating IPOHE,[14]; 63 g ai/ha,100
same,phytotoxicity rating IPOHE,[14]; 250 g ai/ha,100
same,phytotoxicity rating CHEAL,[15]; 63 g ai/ha,100
same,phytotoxicity rating CHEAL,[15]; 250 g ai/ha,100
same,phytotoxicity rating DIGSA,[16]; 63 g ai/ha,20
same,phytotoxicity rating DIGSA,[16]; 250 g ai/ha,40
same,phytotoxicity rating AMARE,"[17]; 63 g ai/ha, rating scale 0-100 (0 no damage, 100 complete death)",100
same,phytotoxicity rating AMARE,"[17]; 250 g ai/ha, rating scale 0-100",100
same,phytotoxicity rating CASOB,[18]; 63 g ai/ha,95
same,phytotoxicity rating CASOB,[18]; 250 g ai/ha,100
same,phytotoxicity rating ABUTH,[19]; 63 g ai/ha,100
same,phytotoxicity rating ABUTH,[19]; 250 g ai/ha,100
same,phytotoxicity rating CORN (crop damage),[20]; 63 g ai/ha,90
same,phytotoxicity rating CORN (crop damage),[20]; 250 g ai/ha,90
same,phytotoxicity rating RICE (crop damage),[21]; 63 g ai/ha,80
same,phytotoxicity rating RICE (crop damage),[21]; 250 g ai/ha,80
